16 compounds from patent publication US12310975B2, “Modulators of BCL6 proteolysis and associated methods of use” (Arvinas Operations, Inc., priority 2019, dated 2025) can be followed below.

For assay [1], the target named is T1, BCL6 (Homo sapiens (Human), UniProt P41182). The experiment in a line: Immunofluorescence high content imaging of BCL6 degradation in T47D cells. The format is cell-based. As to conditions: T47D. The gist of the method: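 Following a 3-day incubation with serially diluted bifunctional compounds (final top 0.1 or 1 μM), T47D cells were PFA-fixed and immunostained for BCL6. Nuclear BCL6 signal was captured on a high-content imager.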

Assay [2] deals with T1, BCL6. As to the kind of experiment: BCL6 TR-FRET assay (BCL6-Avitag-Biotin / BCoR-Cy5 peptide). Type of assay: binding. The note with it: read-out: IC50. The gist of the method:
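After 30 min room-temperature preincubation of compound titrations with 2 nM biotinylated BCL6-Avitag, 100 nM Cy5-labelled BCoR peptide plus 2 nM Eu-streptavidin were added and TR-FRET read 2 h later. HEPES pH 7.5/125 mM NaCl buffer with Triton X, glutathione (or DTT) and BSA.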
(In general: TR-FRET usually uses a lanthanide donor and a delayed reading to cut background.)

The term Dmax denotes the largest share of the target that was removed. Read a low Dmax as shallow degradation. A word on the IC50: it is the concentration that inhibits the measured activity by half.

Take `CNC(=O)COc1cc2cc(Nc3nc(N4CCC5(CC4)CN(CC4CCN(c6cccc(C(=O)NC7CCC(=O)NC7=O)c6F)CC4)C5)ncc3Cl)ccc2n(C(C)C)c1=O` (centres unmarked) [compound 450, 3-[4-({7-[5-chloro-4-({3-[(methylcarbamoyl)methoxy]-2-oxo-1-(propan-2-yl)-1,2-dihydroquinolin-6-yl}amino)pyrimidin-2-yl]-2,7-diazaspiro[3.5]nonan-2-yl}methyl)piperidin-1-yl]-N-(2,6-dioxopiperidin-3-yl)-2-fluorobenzamide]: the Dmax on BCL6 [1] is ≥ 70%. In addition, the IC50 at BCL6 [2] was < 10 nM.

With `CNC(=O)COc1cc2cc(Nc3nc(N4CCN(CC5CCC6(CC5)CN(c5ccc7c(c5)C(=O)N(C5CCC(=O)NC5=O)C7=O)C6)CC4)ncc3Cl)ccc2n(C(C)C)c1=O` (centres unmarked) [compound 451, 2-{[6-({5-chloro-2-[4-({2-[2-(2,6-dioxopiperidin-3-yl)-1,3-dioxo-2,3-dihydro-1H-isoindol-5-yl]-2-azaspiro[3.5]nonan-7-yl}methyl)piperazin-1-yl]pyrimidin-4-yl}amino)-2-oxo-1-(propan-2-yl)-1,2-dihydroquinolin-3-yl]oxy}-N-methylacetamide], the Dmax on BCL6 [1] lay within 50 to 70%. Besides, the IC50 at BCL6 [2] was < 10 nM.

`CNC(=O)COc1cc2cc(Nc3nc(N4CCN(CC5CCC6(CC5)CN(c5cccc7c5C(=O)N(C5CCC(=O)NC5=O)C7=O)C6)CC4)ncc3Cl)ccc2n(C(C)C)c1=O` (centres unmarked) [compound 452, 2-{[6-({5-chloro-2-[4-({2-[2-(2,6-dioxopiperidin-3-yl)-1,3-dioxo-2,3-dihydro-1H-isoindol-4-yl]-2-azaspiro[3.5]nonan-7-yl}methyl)piperazin-1-yl]pyrimidin-4-yl}amino)-2-oxo-1-(propan-2-yl)-1,2-dihydroquinolin-3-yl]oxy}-N-methylacetamide]: at BCL6 [1], the Dmax is ≥ 70%. For the same compound, the IC50 on BCL6 [2] is < 10 nM.

As to `CNC(=O)COc1cc2cc(Nc3nc(N4CCC5(CC4)CC(OC4CCN(c6cccc(C(=O)NC7CCC(=O)NC7=O)c6F)CC4)C5)ncc3Cl)ccc2n(C(C)C)c1=O` (centres unmarked) [compound 453, 3-[4-({7-[5-chloro-4-({3-[(methylcarbamoyl)methoxy]-2-oxo-1-(propan-2-yl)-1,2-dihydroquinolin-6-yl}amino)pyrimidin-2-yl]-7-azaspiro[3.5]nonan-2-yl}oxy)piperidin-1-yl]-N-(2,6-dioxopiperidin-3-yl)-2-fluorobenzamide], the Dmax on BCL6 [1] was ≥ 70%. Also, the IC50 on BCL6 [2] was 10 to 50 nM.

`CNC(=O)COc1cc2cc(Nc3nc(N4CCN(CC5CCN(c6cccc7c6C(=O)N(C6CCC(=O)NC6=O)C7=O)CC5)CC4)ncc3Cl)ccc2n(CCOC)c1=O` (centres unmarked) [compound 454, 2-{[6-({5-chloro-2-[4-({1-[2-(2,6-dioxopiperidin-3-yl)-1,3-dioxo-2,3-dihydro-1H-isoindol-4-yl]piperidin-4-yl}methyl)piperazin-1-yl]pyrimidin-4-yl}amino)-1-(2-methoxyethyl)-2-oxo-1,2-dihydroquinolin-3-yl]oxy}-N-methylacetamide]: on BCL6 [1], the Dmax is ≥ 70%. Further, on BCL6 [2], the IC50 was < 10 nM.

Regarding `CNC(=O)COc1cc2cc(Nc3nc(N4CCC[C@H](COc5cccc6c5C(=O)N(C5CCC(=O)NC5=O)C6=O)C4)ncc3Cl)ccc2n(CCOC)c1=O` (stereo partly drawn) [compound 455, 2-{[6-({5-chloro-2-[(3S)-3-({[2-(2,6-dioxopiperidin-3-yl)-1,3-dioxo-2,3-dihydro-1H-isoindol-4-yl]oxy}methyl)piperidin-1-yl]pyrimidin-4-yl}amino)-1-(2-methoxyethyl)-2-oxo-1,2-dihydroquinolin-3-yl]oxy}-N-methylacetamide], the Dmax on BCL6 [1] is ≥ 70%. Further, the IC50 on BCL6 [2] fell in the range of 50 to 100 nM.

Consider `CNC(=O)COc1cc2cc(Nc3nc(N4CCC(O[C@H]5C[C@H](COc6ccc7c(c6)C(=O)N(C6CCC(=O)NC6=O)C7=O)N(C)C5)CC4)ncc3Cl)ccc2n(C(C)C)c1=O` (stereo partly drawn) [compound 458, 2-[(6-{[5-chloro-2-(4-{[(3S,5R)-5-({[2-(2,6-dioxopiperidin-3-yl)-1,3-dioxo-2,3-dihydro-1H-isoindol-5-yl]oxy}methyl)-1-methylpyrrolidin-3-yl]oxy}piperidin-1-yl)pyrimidin-4-yl]amino}-2-oxo-1-(propan-2-yl)-1,2-dihydroquinolin-3-yl)oxy]-N-methylacetamide], for which the Dmax at BCL6 [1] was ≥ 70%. Also, at BCL6 [2], the IC50 lay in the range of 50 to 100 nM.

The compound `CNC(=O)COc1cc2cc(Nc3nc(N4CCC(O[C@@H]5C[C@H](Oc6ccc7c(c6)C(=O)N(C6CCC(=O)NC6=O)C7=O)CN(C)C5)CC4)ncc3Cl)ccc2n(C(C)C)c1=O` (stereo partly drawn) [compound 461, 2-[(6-{[5-chloro-2-(4-{[(3R,5S)-5-{[2-(2,6-dioxopiperidin-3-yl)-1,3-dioxo-2,3-dihydro-1H-isoindol-5-yl]oxy}-1-methylpiperidin-3-yl]oxy}piperidin-1-yl)pyrimidin-4-yl]amino}-2-oxo-1-(propan-2-yl)-1,2-dihydroquinolin-3-yl)oxy]-N-methylacetamide] displayed a Dmax at BCL6 [1] of 50 to 70%. Moreover, the IC50 on BCL6 [2] was in the range of 10 to 50 nM.

For `CNC(=O)COc1cc2cc(Nc3nc(N4CCC(CN5CCC(c6cc(OC)cc(C(=O)NC7CCC(=O)NC7=O)c6F)CC5)CC4)ncc3Cl)ccc2n(C(C)C)c1=O` (centres unmarked) [compound 462, 3-[1-({1-[5-chloro-4-({3-[(methylcarbamoyl)methoxy]-2-oxo-1-(propan-2-yl)-1,2-dihydroquinolin-6-yl}amino)pyrimidin-2-yl]piperidin-4-yl}methyl)piperidin-4-yl]-N-(2,6-dioxopiperidin-3-yl)-2-fluoro-5-methoxybenzamide], the Dmax at BCL6 [1] is ≥ 70%. Also, at BCL6 [2], the IC50 is ≥ 100 nM.

In the case of `CNC(=O)COc1cc2cc(Nc3nc(N4CCC(O[C@@H]5C[C@@H](COc6ccc7c(c6)C(=O)N(C6CCC(=O)NC6=O)C7=O)N(C)C5)CC4)ncc3Cl)ccc2n(C(C)C)c1=O` (stereo partly drawn) [compound 463, 2-[(6-{[5-chloro-2-(4-{[(3R,5S)-5-({[2-(2,6-dioxopiperidin-3-yl)-1,3-dioxo-2,3-dihydro-1H-isoindol-5-yl]oxy}methyl)-1-methylpyrrolidin-3-yl]oxy}piperidin-1-yl)pyrimidin-4-yl]amino}-2-oxo-1-(propan-2-yl)-1,2-dihydroquinolin-3-yl)oxy]-N-methylacetamide], the Dmax at BCL6 [1] was < 50%. Further, the half-inhibitory concentration (IC50) on BCL6 [2] lay in the range of 10 to 50 nM.

The compound `CNC(=O)COc1cc2cc(Nc3nc(N4CCN(CC5CCN(c6cc(OC)cc(C(=O)NC7CCC(=O)NC7=O)c6F)CC5)CC4)ncc3Cl)ccc2n(C)c1=O` (centres unmarked) [compound 465, 3-[4-({4-[5-chloro-4-({1-methyl-3-[(methylcarbamoyl)methoxy]-2-oxo-1,2-dihydroquinolin-6-yl}amino)pyrimidin-2-yl]piperazin-1-yl}methyl)piperidin-1-yl]-N-(2,6-dioxopiperidin-3-yl)-2-fluoro-5-methoxybenzamide] displayed a Dmax on BCL6 [1] of 50 to 70%. Further, the IC50 at BCL6 [2] was < 10 nM.

For the compound `CNC(=O)COc1cc2cc(Nc3nc(N4CCC(CN5CCN(c6cc(OC)cc(C(=O)NC7CCC(=O)NC7=O)c6F)CC5)CC4)ncc3Cl)ccc2n(C(C)C)c1=O` (centres unmarked) [compound 466, 3-[4-({1-[5-chloro-4-({3-[(methylcarbamoyl)methoxy]-2-oxo-1-(propan-2-yl)-1,2-dihydroquinolin-6-yl}amino)pyrimidin-2-yl]piperidin-4-yl}methyl)piperazin-1-yl]-N-(2,6-dioxopiperidin-3-yl)-2-fluoro-5-methoxybenzamide], the Dmax on BCL6 [1] was 50 to 70%. The IC50 at BCL6 [2] is < 10 nM.

As for `CNC(=O)COc1cc2cc(Nc3nc(N4CCC(CN5CCC(c6cc(OC)cc(C(=O)NC7CCC(=O)NC7=O)c6F)CC5)CC4)ncc3Cl)ccc2n(C)c1=O` (centres unmarked) [compound 467, 3-[1-({1-[5-chloro-4-({1-methyl-3-[(methylcarbamoyl)methoxy]-2-oxo-1,2-dihydroquinolin-6-yl}amino)pyrimidin-2-yl]piperidin-4-yl}methyl)piperidin-4-yl]-N-(2,6-dioxopiperidin-3-yl)-2-fluoro-5-methoxybenzamide], the Dmax at BCL6 [1] is < 50%. Moreover, the IC50 on BCL6 [2] was 10 to 50 nM.

On to `CNC(=O)COc1cc2cc(Nc3nc(N(C)C)ncc3Cl)ccc2n(CCCOc2ccc3c(c2)C(=O)N(C2CCC(=O)NC2=O)C3=O)c1=O` (centres unmarked) [compound 469, 2-[(6-{[5-chloro-2-(dimethylamino)pyrimidin-4-yl]amino}-1-(3-{[2-(2,6-dioxopiperidin-3-yl)-1,3-dioxo-2,3-dihydro-1H-isoindol-5-yl]oxy}propyl)-2-oxo-1,2-dihydroquinolin-3-yl)oxy]-N-methylacetamide], for which the Dmax at BCL6 [1] was < 50%. Further, at BCL6 [2], the half-maximal inhibitory concentration (IC50) was 10 to 50 nM.

As to `CNC(=O)COc1cc2cc(Nc3nc(N(C)C)ncc3Cl)ccc2n(CCOc2ccc3c(c2)C(=O)N(C2CCC(=O)NC2=O)C3=O)c1=O` (centres unmarked) [compound 470, 2-[(6-{[5-chloro-2-(dimethylamino)pyrimidin-4-yl]amino}-1-(2-{[2-(2,6-dioxopiperidin-3-yl)-1,3-dioxo-2,3-dihydro-1H-isoindol-5-yl]oxy}ethyl)-2-oxo-1,2-dihydroquinolin-3-yl)oxy]-N-methylacetamide], the Dmax at BCL6 [1] was < 50%. For the same compound, the IC50 at BCL6 [2] was 10 to 50 nM.

As to `CNC(=O)COc1cc2cc(Nc3nc(N4CCC(O[C@H]5C[C@H](COc6cccc7c6C(=O)N(C6CCC(=O)NC6=O)C7=O)N(C)C5)CC4)ncc3Cl)ccc2n(C(C)C)c1=O` (stereo partly drawn) [compound 471, 2-[(6-{[5-chloro-2-(4-{[(3S,5R)-5-({[2-(2,6-dioxopiperidin-3-yl)-1,3-dioxo-2,3-dihydro-1H-isoindol-4-yl]oxy}methyl)-1-methylpyrrolidin-3-yl]oxy}piperidin-1-yl)pyrimidin-4-yl]amino}-2-oxo-1-(propan-2-yl)-1,2-dihydroquinolin-3-yl)oxy]-N-methylacetamide], on BCL6 [1], the Dmax was < 50%. In addition, at BCL6 [2], the IC50 lay within 10 to 50 nM.
